Assay results from patent US20150209335A1, “METHODS AND SMALL MOLECULE THERAPEUTICS COMPRISING FUSED ELPS” (UNIVERSITY OF SOUTHERN CALIFORNIA, priority 2012, published 2015).

Legend:
[1] = system: MDA-MB-468 rapamycin sensitive breast cancer cell line; test: MTS cell viability assay, MDA-MB-468; assay type: cell-based; conditions: MDA-MB-468 cell assay
Procedure: Each mouse was injected with 3×10^6 MDA-MB-468 cells s.c. in mammary fat pads. […] 3 times a week. […] Therefore, the dose was reduced to only once a week.

[2] = system: lymphocytic infiltration of the lacrimal gland; test: lymphocytic infiltration of the lacrimal gland in male NOD mice (autoimmune dacryoadenitis); assay type: in vivo, mouse; conditions: 12 week old male NOD mice, tail vein, one week of treatment
From the text: The bottom panel is image analysis that was used to quantify % of tissue section containing lymphocyte foci. *p=0.003, **P=5×10·5, ***P=0.01, ****P=0.0009.

[3] = in vivo; cited from earlier work
[4] = toxicity and body weight in the MDA-MB-468 xenograft mouse study; conditions: after first 2 doses, dosed 3 times a week
From the text: 3 times a week. […] Therefore, the dose was reduced to only once a week.

[5] = system: interferon gamma (IFN gamma); test: interferon gamma expression in NOD mouse lacrimal gland, real time RT-PCR; assay type: in vivo; conditions: NOD mice, 7-day treatment period
From the text: Quantitation was achieved using real time RT-PCR. Expression of IFN-gamma was quantified after a 7-day treatment period with PBS, Free Rapa, and FSI Rapa.

[6] = dynamic light scattering (DLS) size of ELP nanoparticles; assay type: physicochemical; conditions: concentration of 25 uM
From the text: ELP diblock copolymers with hydrophobic and hydrophilic guest residues at opposite ends of the polymer (e.g. (Val-Pro-Gly-Ile-Gly) 48(Val-Pro-Gly-Ser-Gly)48 (SEQ ID NO: 12) called I48S48) can form nanoparticles. A class of ELP block copolymers with hydrophobic block:hydrophilic block=1:1 have been confirmed to form different sizes of stable nanoparticles. For instances, (Val-Pro-Gly-Ile-Gly)48(Val-Pro-Gly-Ser-Gly)48 (SEQ ID NO: 12) short name: 148S48; (Val-Pro-Gly- Phe-Gly)24(Val-Pro-Gly-Ser-Gly)24 (SEQ ID NO: 13)) short name F24S24. Dynamic light scattering (DLS) can be applied to measure the size of ELP nanoparticles. At concentration of 25 uM, ELP block copolymer 148S48 forms 24 nm in radius nanoparticles; however, F24S24 forms nanoparticles with 15 nm hydrodynamic radius. In order to actually observe the morphology of ELP nanoparticles, transmission electron microscopy (TEM) and cryo-transmission electron microscopy (Cryo-TEM) can be applied. In TEM, 1% of Uranyl acetate solution is used to negatively stain ELP nanoparticles. Therefore, ELP nanoparticles are expected to be observed as hollow spheres. Different from TEM in which ELP samples are loaded on a grid and dry at room temperature. Cryo-TEM studies ELP samples at cryogenic temperatures, generally liquid nitrogen temperatures. […]

[7] = Rapa encapsulation and release from ELP nanoparticles, dialysis under sink conditions, RP-HPLC; assay type: physicochemical; conditions: preliminary experiments
Procedure: Dialysis under sink conditions was used track the loss of Rapa from the nanoparticles. Mean±SD (n=3).
A two phase method was developed to encapsulate Rapa into the ELP nanoparticles. An aqueous phase PBS containing S48I48 or FKBP-S48I48 was mixed with an organic phase hexane/EtOH containing Rapa in a small glass vial. The vial was kept stirred and heated up to the CMT of S48I48 or FKBP-S48I48. A nitrogen flow was applied to facilitate the evaporation of the hexane/EtOH phase. A 13.2K 10 min centrifugation was performed to remove the insoluble Rapa after the organic phase evaporated out. 100 μL of the sample was filtered and injected into a C-18 reverse phase HPLC column to analyze the amount of the Rapa that was initially encapsulated. Rapa releasing experiment was performed under a sink condition of H2O dialysis. Samples were collected in the dialysis cassette at time points of 0 h, 1 h, 2 h, 4 h, 6 h, 9 h, 19.5 h, 27 h, 31 h and 48 h. RP-HPLC was used to determine the amount of Rapa that was retained inside the ELP nanoparticle core.

For CO[C@H]1C[C@@H]2CC[C@@H](C)[C@@](O)(O2)C(=O)C(=O)N2CCCC[C@H]2C(=O)O[C@H]([C@H](C)C[C@@H]2CC[C@@H](O)[C@H](OC)C2)CC(=O)[C@H](C)/C=C(\C)[C@@H](O)[C@@H](OC)C(=O)[C@H](C)C[C@H](C)/C=C/C=C/C=C/1C [rapamycin, (3S,6R,7E,9R,10R,12R,14S,15E,17E,19E,21S,23S,26R,27R,34aS)-9,10,12,13,14,21,22,23,24,25,26,27,32,33,34,34a-hexadecahydro-9,27-dihydroxy-3-[(1R)-2-[(1S,3R,4R)-4-hydroxy-3-methoxycyclohexyl]-1-methylethyl]-10,21-dimethoxy-6,8,12,14,20,26-hexamethyl-23,27-epoxy-3H-pyrido[2,1-c][1,4]-oxaazacyclohentriacontine-1,5,11,28,29 (4H,6H,31H)-pentone], the “rapamycin dose (concentration) that could be reached” value [1] is listed as “could not reach such a high rapamycin concentration”, the “lymphocytic infiltration (lymphocyte foci) of lacrimal gland” value [2] is listed as “less lymphocyte invasion” and the “bioavailability of the plain drug” value [3] is listed as “less than 20%”. The body weight lost [4] was “about 10%” and the “IFN gamma expression in lacrimal gland” value [5] was “sizeable reduction”.

B1: I48S48: ELP diblock copolymer (Val-Pro-Gly-Ile-Gly)48(Val-Pro-Gly-Ser-Gly)48 (SEQ ID NO: 12), forms nanoparticles (protein)
chain: VPGIGVPGIGVPGIGVPGIGVPGIGVPGIGVPGIGVPGIGVPGIGVPGIGVPGIGVPGIGVPGIGVPGIGVPGIGVPGIGVPGIGVPGIGVPGIGVPGIGVPGIGVPGIGVPGIGVPGIGVPGIGVPGIGVPGIGVPGIGVPGIGVPGIGVPGIGVPGIGVPGIGVPGIGVPGIGVPGIGVPGIGVPGIGVPGIGVPGIGVPGIGVPGIGVPGIGVPGIGVPGIGVPGIGVPGIGVPGIGVPGSGVPGSGVPGSGVPGSGVPGSGVPGSGVPGSGVPGSGVPGSGVPGSGVPGSGVPGSGVPGSGVPGSGVPGSGVPGSGVPGSGVPGSGVPGSGVPGSGVPGSGVPGSGVPGSGVPGSGVPGSGVPGSGVPGSGVPGSGVPGSGVPGSGVPGSGVPGSGVPGSGVPGSGVPGSGVPGSGVPGSGVPGSGVPGSGVPGSGVPGSGVPGSGVPGSGVPGSGVPGSGVPGSGVPGSGVPGSG
With B1 the nanoparticle hydrodynamic radius [6] was 24 nm and the “rapamycin encapsulation into plain ELP nanoparticles” value [7] was “efficiently encapsulated”.

B2: F24S24: ELP diblock copolymer (Val-Pro-Gly-Phe-Gly)24(Val-Pro-Gly-Ser-Gly)24 (SEQ ID NO: 13), forms nanoparticles (protein)
chain: VPGFGVPGFGVPGFGVPGFGVPGFGVPGFGVPGFGVPGFGVPGFGVPGFGVPGFGVPGFGVPGFGVPGFGVPGFGVPGFGVPGFGVPGFGVPGFGVPGFGVPGFGVPGFGVPGFGVPGFGVPGSGVPGSGVPGSGVPGSGVPGSGVPGSGVPGSGVPGSGVPGSGVPGSGVPGSGVPGSGVPGSGVPGSGVPGSGVPGSGVPGSGVPGSGVPGSGVPGSGVPGSGVPGSGVPGSGVPGSG
For B2, the nanoparticle hydrodynamic radius [6] was 15 nm and the “rapamycin encapsulation into plain ELP nanoparticles” value [7] was “efficiently encapsulated”.
